Assay results taken from ChEMBL document CHEMBL1201862, “PubChem BioAssay data set” (2004).
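Values below derive from 48-hour exposures of cells grown in 96-well plates, with endpoints linearly interpolated between the two concentrations bracketing the appropriate inhibition level. GI50 = concentration required for 50% inhibition of growth.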 Calls of active or inactive are those of the source. Rule as the data show it: active = GI50 up to about 1.1 µM and inactive = higher.

Experiments:
Test in all cases: DTP human tumour cell line panel, 48 h
A549 = test system: A549
SK-MEL-28 = test system: SK-MEL-28
SNB-19 = test system: SNB-19
OVCAR-8 = test system: OVCAR-8
M19-MEL = test system: M19-MEL
SNB-75 = test system: SNB-75
HCT-116 = test system: HCT-116
SF-295 = test system: SF-295
HCC 2998 = test system: HCC 2998
Malme-3M = test system: Malme-3M
M14 = test system: M14
NCI-H226 = test system: NCI-H226
786-0 = test system: 786-0
EKVX = test system: EKVX
HOP-62 = test system: HOP-62
LXFL 529 = test system: LXFL 529
CAKI-1 = test system: CAKI-1
SK-MEL-2 = test system: SK-MEL-2
OVCAR-3 = test system: OVCAR-3
SF-539 = test system: SF-539
SK-MEL-5 = test system: SK-MEL-5
ACHN = test system: ACHN
OVCAR-4 = test system: OVCAR-4
HOP-92 = test system: HOP-92
COLO 205 = test system: COLO 205
SF-268 = test system: SF-268
SN12C = test system: SN12C
KM-20L2 = test system: KM-20L2
DMS-114 = test system: DMS-114
IGROV-1 = test system: IGROV-1
NCI-H522 = test system: NCI-H522
TK-10 = test system: TK-10
MOLT-4 = test system: MOLT-4
A498 = test system: A498
CCRF-CEM = test system: CCRF-CEM
HCT-15 = test system: HCT-15
DLD-1 = test system: DLD-1
SR = test system: SR
UO-31 = test system: UO-31
DMS-273 = test system: DMS-273
HOP-18 = test system: HOP-18
SK-OV-3 = test system: SK-OV-3
U-251 = test system: U-251
NCI-H460 = test system: NCI-H460
XF498 = test system: XF498
K562 = test system: K562
HT-29 = test system: HT-29
NCI-H23 = test system: NCI-H23
KM12 = test system: KM12
OVCAR-5 = test system: OVCAR-5
UACC-62 = test system: UACC-62
RPMI-8226 = test system: RPMI-8226
UACC-257 = test system: UACC-257
SW-620 = test system: SW-620
HL-60 = test system: HL-60
LOX IMVI = test system: LOX IMVI
RXF 393 = test system: RXF 393
SNB-78 = test system: SNB-78

Q: For `CCOC(=O)C(=O)Nc1cc(Cl)ccc1Cl`, which GI50 (A549) is on record?
A: > 100 µM (inactive)

Q: What about the GI50 (SK-MEL-28) of the same compound?
A: > 100 µM (inactive)

Q: What about the GI50 (SNB-19) of the same compound?
A: > 100 µM (inactive)

Q: And the GI50 (OVCAR-8)?
A: > 100 µM (inactive)

Q: What about the GI50 (M19-MEL) of the same compound?
A: > 100 µM (inactive)

Q: What about the GI50 (SNB-75) of the same compound?
A: 34.2 µM (inactive)

Q: And the GI50 (HCT-116)?
A: > 100 µM (inactive)

Q: And the GI50 (SF-295)?
A: > 100 µM (inactive)

Q: What about the GI50 (HCC 2998) of the same compound?
A: > 100 µM (inactive)

Q: And the GI50 (Malme-3M)?
A: > 100 µM (inactive)

Q: And the GI50 (M14)?
A: > 100 µM (inactive)

Q: And the GI50 (NCI-H226)?
A: > 100 µM (inactive)

Q: What about the GI50 (786-0) of the same compound?
A: > 100 µM (inactive)

Q: And the GI50 (EKVX)?
A: > 100 µM (inactive)

Q: What about the GI50 (HOP-62) of the same compound?
A: > 100 µM (inactive)

Q: And the GI50 (LXFL 529)?
A: > 100 µM (inactive)

Q: What about the GI50 (CAKI-1) of the same compound?
A: > 100 µM (inactive)

Q: What about the GI50 (SK-MEL-2) of the same compound?
A: > 100 µM (inactive)

Q: What about the GI50 (OVCAR-3) of the same compound?
A: > 100 µM (inactive)

Q: And the GI50 (SF-539)?
A: > 100 µM (inactive)

Q: What about the GI50 (SK-MEL-5) of the same compound?
A: > 100 µM (inactive)

Q: What about the GI50 (ACHN) of the same compound?
A: > 100 µM (inactive)

Q: And the GI50 (OVCAR-4)?
A: > 100 µM (inactive)

Q: And the GI50 (HOP-92)?
A: > 100 µM (inactive)

Q: What about the GI50 (COLO 205) of the same compound?
A: > 100 µM (inactive)

Q: And the GI50 (SF-268)?
A: > 100 µM (inactive)

Q: What about the GI50 (SN12C) of the same compound?
A: > 100 µM (inactive)

Q: What about the GI50 (KM-20L2) of the same compound?
A: > 100 µM (inactive)

Q: What about the GI50 (DMS-114) of the same compound?
A: > 100 µM (inactive)

Q: And the GI50 (IGROV-1)?
A: > 100 µM (inactive)

Q: What about the GI50 (NCI-H522) of the same compound?
A: > 100 µM (inactive)

Q: And the GI50 (TK-10)?
A: > 100 µM (inactive)

Q: And the GI50 (MOLT-4)?
A: > 100 µM (inactive)

Q: What about the GI50 (A498) of the same compound?
A: > 100 µM (inactive)

Q: And the GI50 (CCRF-CEM)?
A: > 100 µM (inactive)

Q: What about the GI50 (HCT-15) of the same compound?
A: > 100 µM

Q: And the GI50 (DLD-1)?
A: > 100 µM (inactive)

Q: And the GI50 (SR)?
A: > 100 µM (inactive)

Q: What about the GI50 (UO-31) of the same compound?
A: > 100 µM (inactive)

Q: And the GI50 (DMS-273)?
A: > 100 µM (inactive)

Q: And the GI50 (HOP-18)?
A: > 100 µM (inactive)

Q: And the GI50 (SK-OV-3)?
A: > 100 µM (inactive)

Q: What about the GI50 (U-251) of the same compound?
A: > 100 µM (inactive)

Q: And the GI50 (NCI-H460)?
A: > 100 µM (inactive)

Q: What about the GI50 (XF498) of the same compound?
A: > 100 µM (inactive)

Q: And the GI50 (K562)?
A: > 100 µM (inactive)

Q: What about the GI50 (HT-29) of the same compound?
A: > 100 µM (inactive)

Q: And the GI50 (NCI-H23)?
A: > 100 µM (inactive)

Q: And the GI50 (KM12)?
A: > 100 µM (inactive)

Q: And the GI50 (OVCAR-5)?
A: > 100 µM (inactive)

Q: And the GI50 (UACC-62)?
A: > 100 µM (inactive)

Q: What about the GI50 (RPMI-8226) of the same compound?
A: > 100 µM (inactive)

Q: What about the GI50 (UACC-257) of the same compound?
A: > 100 µM (inactive)

Q: And the GI50 (SW-620)?
A: > 100 µM (inactive)

Q: And the GI50 (HL-60)?
A: > 100 µM (inactive)

Q: What does the source list for `CC(=O)OC12/C(=N/O)CCCCCC1c1ccccc12` (stereo not drawn)?
A: GI50 (A549): > 100 µM (inactive); GI50 (SK-MEL-28): > 100 µM (inactive); GI50 (SNB-19): > 100 µM (inactive); GI50 (OVCAR-8): > 100 µM (inactive); GI50 (M19-MEL): > 100 µM (inactive); GI50 (SNB-75): 42.8 µM (inactive); GI50 (HCT-116): 84.7 µM (inactive); GI50 (SF-295): 96.8 µM (inactive); GI50 (Malme-3M): > 100 µM (inactive); GI50 (NCI-H226): > 100 µM (inactive); GI50 (786-0): > 100 µM (inactive); GI50 (EKVX): 68.1 µM (inactive); GI50 (HOP-62): > 100 µM (inactive); GI50 (LXFL 529): 66.8 µM (inactive); GI50 (SK-MEL-2): > 100 µM (inactive); GI50 (LOX IMVI): > 100 µM (inactive); GI50 (SK-MEL-5): > 100 µM (inactive); GI50 (ACHN): 95.3 µM (inactive); GI50 (OVCAR-4): 60.8 µM (inactive); GI50 (COLO 205): > 100 µM (inactive); GI50 (SF-268): > 100 µM (inactive); GI50 (SN12C): > 100 µM (inactive); GI50 (KM-20L2): > 100 µM (inactive); GI50 (DMS-114): 41.7 µM (inactive); GI50 (NCI-H522): 31.2 µM (inactive); GI50 (TK-10): > 100 µM (inactive); GI50 (MOLT-4): 25.4 µM (inactive); GI50 (CCRF-CEM): 26.4 µM (inactive); GI50 (HCT-15): > 100 µM; GI50 (RXF 393): 29.6 µM (inactive); GI50 (SR): 30.4 µM (inactive); GI50 (UO-31): 27.5 µM (inactive); GI50 (DMS-273): > 100 µM (inactive); GI50 (HOP-18): > 100 µM (inactive); GI50 (SNB-78): 36.3 µM (inactive); GI50 (SK-OV-3): > 100 µM (inactive); GI50 (U-251): > 100 µM (inactive); GI50 (NCI-H460): > 100 µM (inactive); GI50 (XF498): 62.8 µM (inactive); GI50 (K562): 39.2 µM (inactive); GI50 (HT-29): > 100 µM (inactive); GI50 (NCI-H23): 70.8 µM (inactive); GI50 (KM12): > 100 µM (inactive); GI50 (UACC-62): 95.5 µM (inactive); GI50 (RPMI-8226): 33.6 µM (inactive); GI50 (UACC-257): 74.8 µM (inactive); GI50 (SW-620): > 100 µM (inactive); GI50 (HL-60): 64.3 µM (inactive)

Q: What does the source list for `CCC1=C(C(C)=O)[C@@H]2CCCCC[C@@H](C(=O)OC)C2C1=O` (stereo partly drawn)?
A: GI50 (A549): > 100 µM (inactive); GI50 (SK-MEL-28): > 100 µM (inactive); GI50 (SNB-19): > 100 µM (inactive); GI50 (OVCAR-8): > 100 µM (inactive); GI50 (M19-MEL): > 100 µM (inactive); GI50 (SNB-75): > 100 µM (inactive); GI50 (HCT-116): > 100 µM (inactive); GI50 (SF-295): > 100 µM (inactive); GI50 (HCC 2998): > 100 µM (inactive); GI50 (Malme-3M): > 100 µM (inactive); GI50 (M14): > 100 µM (inactive); GI50 (786-0): > 100 µM (inactive); GI50 (EKVX): > 100 µM (inactive); GI50 (HOP-62): > 100 µM (inactive); GI50 (LXFL 529): > 100 µM (inactive); GI50 (CAKI-1): > 100 µM (inactive); GI50 (SK-MEL-2): > 100 µM (inactive); GI50 (SF-539): > 100 µM (inactive); GI50 (SK-MEL-5): > 100 µM (inactive); GI50 (ACHN): > 100 µM (inactive); GI50 (OVCAR-4): > 100 µM (inactive); GI50 (HOP-92): > 100 µM (inactive); GI50 (COLO 205): > 100 µM (inactive); GI50 (SF-268): > 100 µM (inactive); GI50 (SN12C): > 100 µM (inactive); GI50 (KM-20L2): > 100 µM (inactive); GI50 (DMS-114): > 100 µM (inactive); GI50 (IGROV-1): > 100 µM (inactive); GI50 (NCI-H522): > 100 µM (inactive); GI50 (TK-10): > 100 µM (inactive); GI50 (MOLT-4): > 100 µM (inactive); GI50 (A498): > 100 µM (inactive); GI50 (CCRF-CEM): > 100 µM (inactive); GI50 (HCT-15): > 100 µM; GI50 (RXF 393): > 100 µM (inactive); GI50 (DLD-1): > 100 µM (inactive); GI50 (SR): > 100 µM (inactive); GI50 (UO-31): > 100 µM (inactive); GI50 (DMS-273): > 100 µM (inactive); GI50 (HOP-18): 57.9 µM (inactive); GI50 (SNB-78): > 100 µM (inactive); GI50 (SK-OV-3): > 100 µM (inactive); GI50 (U-251): > 100 µM (inactive); GI50 (NCI-H460): > 100 µM (inactive); GI50 (XF498): > 100 µM (inactive); GI50 (K562): > 100 µM (inactive); GI50 (HT-29): > 100 µM (inactive); GI50 (NCI-H23): > 100 µM (inactive); GI50 (KM12): > 100 µM (inactive); GI50 (OVCAR-5): > 100 µM (inactive); GI50 (UACC-62): > 100 µM (inactive); GI50 (RPMI-8226): > 100 µM (inactive); GI50 (UACC-257): > 100 µM (inactive); GI50 (SW-620): > 100 µM (inactive); GI50 (HL-60): > 100 µM (inactive)
